Values of other authors, collected in US8030335B2, “Use of liver X receptor agonists” (Laboratoires Fournier S.A., priority 2005, dated 2011).

Key:
db/db mice = conditions: cited from earlier work
[1] = system: pancreatic islets or insulin-secreting MIN6 cells; conditions: culture with compound, cited from earlier work

O=S(=O)(c1ccccc1)N(CC(F)(F)F)c1ccc(C(O)(C(F)(F)F)C(F)(F)F)cc1 [T0901317]
plasma glucose level (db/db mice; db/db mice (not in normal mice)): lower plasma glucose level
expression of PEPCK (db/db mice; limits hepatic glucose output): inhibits
islet insulin content [1]: increase
glucose-dependent insulin secretion ([1]; effect only after >72 h of islet culture): increase
